Reference: patent publication US10658848B2, “Materials for use with aqueous redox flow batteries and related methods and systems” (Massachusetts Institute of Technology, priority 2014, dated 2020)
In brackets after ≈: the same amount, converted by molar mass. Where two headings read alike, the source gives them in different places.

Columns and labels:
Assay type in all cases: physicochemical
[1] = Solubility limit of quinoxaline in electrolytes and DI H2O; conditions: thermodynamic from solid
Protocol: The solubility limit (at room temperature) of quinoxaline in several electrolytes and DI H2O was estimated using the following method. Scintillation vials were filled with a known volume of electrolyte, and quinoxaline was added in 0.5 M increments. The vials were then vortex sonicated for ˜5 min between quinoxaline additions. Once no more quinoxaline could be dissolved into the vial, the solubility limit was recorded. This method was accurate to the lowest 0.5 M concentration, and solution volume changes due to quinoxaline addition were not considered.

[2] = Quantitative CV and rotating disk voltammetry with numerical fitting (Randles-Sevcik, Levich); conditions: for DO, diffusion coefficient for quinoxaline / DR, diffusion coefficient for the reduced species / α, transfer coefficient for the reduction (forward) reaction: 295 K; for number of electrons transferred, n: ± 95% confidence interval
Description: A set of quantitative experiments were designed to calculate the number of electrons transferred, diffusion coefficients, and transfer coefficients using the Randles-Sevcik equation for irreversible CVs (Eq. (E1)) and the Levich equation (Eq. (E2)). In Eq. (E1), ip is the peak current, n is the number of electrons transferred, α is the transfer coefficient, A is the electrode surface area, F is Faraday's constant, C is the reactant concentration, s is the scan rate, R is the universal gas constant, T is temperature, and D is the diffusion coefficient (e.g., see Compton et al. Understanding Voltammetry, 2nd ed., Imperial College Press, London, 2011). Additionally, in Eq. (E2), iL is the RDV limiting current, ω is the electrode rotation rate, and v is the kinematic viscosity (e.g., see Bard et al. Electrochemical Methods: Fundamentals and Applications, John Wiley & Sons, Danvers, 2001). Kinematic viscosities were determined from dynamic viscosities, which were interpolated from tables by Zaytsev and […] et al. Properties of Aqueous Solutions of Electrolytes, 1st ed., CRC Press, Boca Raton, 1992), and electrolyte densities, which were measured using a balance and known solution volume. All remaining variables are constants or were determined by the experimental design. Quantitative CV and RDV experiments were carried out in a water-jacketed three-electrode cell. Chilled water at a temperature of 295 K (22° C.) was continuously passed through the water jacket in order to maintain a constant temperature throughout the experiment. A rotating disk electrode with a 0.5 cm diameter glassy carbon electrode (0.196 cm^2) was used as a working electrode. A coiled Pt wire used as a counter electrode was housed in a glass compartment that was separated from the main chamber by a porous frit. Both chambers were filled with the same bulk electrolyte. The reference electrode was a double junction Ag/AgCl (10% KNO3), which had been calibrated against a commercially available reversible hydrogen electrode (BAS Inc.) in 1 M NaHCO3 solution by measuring OCV between the two electrodes. All cell components were purchased from Pine Instruments Co., including the rotator and motor used in RDV experiments. Cells were filled with 80 mL of solution, and the solution was bubbled with argon using a porous glass frit at a rate of 50 mL/min for 1 h before taking any electrochemical measurements. After 1 h, the argon gas bubbling stream was switched to an argon gas blanket above the solution. Three cycles of CV, with a stationary electrode, were recorded at each of the following scan rates: 5, 10, 20, 50, and 100 mV/s. Between CV and RDV experiments, the glassy carbon electrode was re-polished before beginning RDV experiments. […] Quantitative voltammetry experiments were performed in triplicate using freshly prepared solution and freshly polished glassy carbon electrodes for each trial. CV experiments were performed at five different scan rates, and RDV experiments were performed at five different rotation speeds for each electrolyte of interest. The aim of these experiments was to determine the number of electrons transferred during a quinoxaline redox reaction, the diffusion coefficients of quinoxaline and its reduced species in each electrolyte, and the transfer coefficients of the redox reactions. FIG. 5a-e and FIG. 6a-e display the third cycle of typical CV data at different scan rates and the second cathodic scan of typical RDV data at different rotation rates, respectively. In order to quantitatively determine the number of electrons transferred, a numerical fitting technique was employed. Among the irreversible Randles-Sevcik (Eq. (E1)) and Levich (Eq. (E2)) equations, there are four unknown variables: the number of electrons transferred, n, two diffusion coefficients, DO/DR, and the transfer coefficient, α. […]

[3] = Repeated CV cycling of 5 mM quinoxaline in 1 M potassium chloride
Protocol: Electrochemical experiments were carried out using other electrolytes.

[4] = 0.45M K2SO4/0.1M KOH, pH 12.9, n=2 fixed
[5] = 0.495M K2SO4/0.01M KOH, pH 11.8, n=2 fixed
[6] = 0.9M KCl/0.1M KOH, pH 12.9, n=2 fixed
[7] = 0.99M KCl/0.01M KOH, pH 11.8, n=2 fixed

c1ccc2nccnc2c1 [quinoxaline]
solubility ([1]; 0.45 M K2SO4/0.1 M KOH electrolyte, aqueous buffer, 0.45M K2SO4/0.1M KOH, pH 12.9, room temperature, three phase separation, read-out: Solubility Limit): 500 mM (≈ 65.1 mg/mL) | solubility ([1]; 0.495 M K2SO4/0.01 M KOH electrolyte, aqueous buffer, 0.495M K2SO4/0.01M KOH, pH 11.8, room temperature, three phase separation, read-out: Solubility Limit): 500 mM (≈ 65.1 mg/mL) | solubility ([1]; 0.9 M KCl/0.1 M KOH electrolyte, aqueous buffer, 0.9M KCl/0.1M KOH, pH 12.9, room temperature, bed of small crystals, read-out: Solubility Limit): 4000 mM (≈ 521 mg/mL) | solubility ([1]; 0.99 M KCl/0.01 M KOH electrolyte, aqueous buffer, 0.99M KCl/0.01M KOH, pH 11.8, room temperature, bed of small crystals, read-out: Solubility Limit): 4000 mM (≈ 521 mg/mL) | solubility ([1]; 1 M KOH electrolyte, aqueous buffer, 1M KOH, pH 13.7, room temperature, dendritic precipitation of crystals, read-out: Solubility Limit): 500 mM (≈ 65.1 mg/mL) | solubility ([1]; aqueous electrolytes containing K2SO4 or only KOH, aqueous buffer, read-out: solubility of quinoxaline): ≤ 500 mM | solubility ([1]; solutions containing KCl, aqueous buffer, read-out: solubility of quinoxaline): ≤ 4000 mM | solubility ([1]; water, DI H2O, pH 7.0, room temperature, bed of small crystals, read-out: Solubility Limit): 4500 mM (≈ 586 mg/mL) | DO, diffusion coefficient for quinoxaline [2, 4]: 7.3 ± 1.7 10^−6 cm^2/s | DR, diffusion coefficient for the reduced species [2, 4]: 4.4 ± 0.4 10^−6 cm^2/s | α, transfer coefficient for the reduction (forward) reaction [2, 4]: 0.60 ± 0.00 | number of electrons transferred, n ([2]; 0.45M K2SO4/0.1M KOH, pH 12.9): 2.54 ± 0.43 | DO, diffusion coefficient for quinoxaline [2, 5]: 6.4 ± 0.7 10^−6 cm^2/s | DR, diffusion coefficient for the reduced species [2, 5]: 4.8 ± 1.0 10^−6 cm^2/s | α, transfer coefficient for the reduction (forward) reaction [2, 5]: 0.59 ± 0.00 | number of electrons transferred, n ([2]; 0.495M K2SO4/0.01M KOH, pH 11.8): 2.26 ± 0.33 | DO, diffusion coefficient for quinoxaline [2, 6]: 6.7 ± 0.4 10^−6 cm^2/s | DR, diffusion coefficient for the reduced species [2, 6]: 5.9 ± 1.0 10^−6 cm^2/s | α, transfer coefficient for the reduction (forward) reaction [2, 6]: 0.62 ± 0.02 | number of electrons transferred, n ([2]; 0.9M KCl/0.1M KOH, pH 12.9): 2.90 ± 0.03 | DO, diffusion coefficient for quinoxaline [2, 7]: 6.0 ± 0.6 10^−6 cm^2/s | DR, diffusion coefficient for the reduced species [2, 7]: 4.9 ± 2.2 10^−6 cm^2/s | α, transfer coefficient for the reduction (forward) reaction [2, 7]: 0.59 ± 0.04 | number of electrons transferred, n ([2]; 0.99M KCl/0.01M KOH, pH 11.8): 1.89 ± 0.21 | DO, diffusion coefficient for quinoxaline ([2]; 1M KOH, pH 13.7, n=2 fixed): 5.8 ± 0.9 10^−6 cm^2/s | DR, diffusion coefficient for the reduced species ([2]; 1M KOH, pH 13.7, n=2 fixed): 4.0 ± 1.7 10^−6 cm^2/s | α, transfer coefficient for the reduction (forward) reaction ([2]; 1M KOH, pH 13.7, n=2 fixed): 0.60 ± 0.05 | number of electrons transferred, n ([2]; 1M KOH, pH 13.7): 2.34 ± 0.72 | diffusion coefficient of quinoxaline relative to the reduced species ([2]; in each electrolyte of Table E3): 1.1-1.7 × | mean calculated value for n (navg) ([2]; mean over the electrolytes in Table E2): 2.34 | transfer coefficient α for the forward reaction ([2]; overall, n=2 fixed): ≈ 0.6 | number of electrons transferred, n, rounded to nearest integer ([2]; rounded from navg): 2 | theoretical capacity ([2]; two-electron transfer process): 410 mAh/g | peak currents on repeated cycling ([3]; 5 mM quinoxaline in 1 M potassium chloride with 10 mM potassium hydroxide): no decrease in peak currents was observed after 100 or 200 cycles | cathodic and anodic currents on repeated cycling ([3]; 5 mM quinoxaline in 1 M potassium chloride, no added base, glassy carbon electrode): decreased with repeated cycling
